The target in series [1] is Glycogen synthase kinase-3 beta (Homo sapiens, UniProt P49841, H355L). The series can be described thus: Displacement of FL-KRREILSRRP[ps]ERYR-NH2 from human recombinant N-terminal His6-tagged GSK-3-beta (14 to 306 residues) H355L mutant expressed in baculovirus-infected Sf21 cells incubated for 20 hrs by fluorescence based analysis.
In series [2] the target is Glycogen synthase kinase-3 alpha (Homo sapiens, UniProt P49840). The series can be described thus: Displacement of FL-KRREILSRRP[ps]ERYR-NH2 from human recombinant full length GST-tagged GSK-3-alpha expressed in insect cells incubated for 20 hrs by fluorescence based analysis. Set-up: species or system Insect cell.
Series [3] can be described thus: Selectivity ratio of IC50 for human recombinant full length GST-tagged GSK-3-alpha expressed in insect cells to IC50 for human recombinant N-terminal His6-tagged GSK-3-beta (14 to 306 residues) H355L mutant expressed in baculovirus-infected Sf21 cells.
Series [4] deals with Glycogen synthase kinase-3 (Homo sapiens, UniProt P49840+P49841). The series can be described thus: Inhibition of GSK-3 in human U2OS cells transfected with beta-catenin GFP and 4R1N tau plasmid assessed as inhibition of Tau phosphorylation at Ser396 residues by high-content imaging assay. In kind it is cell-based.
Series [5] can be described thus: Metabolic stability in human liver microsomes assessed as parent compound remaining at 0.5 uM measured after 10 mins in presence of NADPH by LC-MS/MS analysis. Conditions: read-out: Stability. In kind it is ADME, Microsome. (In general: Liver microsomes are a subcellular fraction often used to study metabolism.)
Series [6] in a line: Metabolic stability in rat liver microsomes assessed as parent compound remaining at 0.5 uM measured after 10 mins in presence of NADPH by LC-MS/MS analysis. In kind it is ADME, Microsome. The conditions noted are these: read-out: Stability.
A short description of series [7]: Metabolic stability in mouse liver microsomes assessed as parent compound remaining at 0.5 uM measured after 10 mins in presence of NADPH by LC-MS/MS analysis. In kind it is ADME, Microsome. The conditions noted are these: read-out: Stability.
Series [8] is described as follows: Permeability of the compound from apical to basolateral side in human Caco-2 cells at 3 uM incubated for 2 hrs by LC-MS/MS analysis. In kind it is ADME, cell-based. Conditions: read-out: permeability. (Caco-2 cells form a polarised layer with tight junctions and transporters.)
A short description of series [9]: Permeability of the compound from basolateral to apical side in human Caco-2 cells at 3 uM incubated for 2 hrs by LC-MS/MS analysis. The conditions noted are these: read-out: permeability. The class given is ADME, cell-based.
A short description of series [10]: Protein binding in human plasma assessed as unbound fraction at 10 uM incubated for 5 hrs by equilibrium dialysis method. The class given is ADME, cell-free. (In general: Equilibrium dialysis compares concentrations on both sides of a semipermeable membrane.)
Series [11] is described as follows: Protein binding in rat plasma assessed as unbound fraction at 10 uM incubated for 5 hrs by equilibrium dialysis method. The class given is ADME, cell-free.
The nature of series [12]: Protein binding in mouse plasma assessed as unbound fraction at 10 uM incubated for 5 hrs by equilibrium dialysis method. In kind it is ADME, cell-free.
The nature of series [13]: Clearance in C57BL/6 mouse at 2 mg/kg, iv by LC-MS/MS analysis. The conditions noted are these: in vivo. In kind it is ADME, organism-based.
Series [14] in a line: Volume of distribution at steady state in C57BL/6 mouse at 2 mg/kg, iv by LC-MS/MS analysis. The class given is ADME, organism-based. Conditions: in vivo, read-out: Vdss.
Series [15] can be described thus: MRT in C57BL/6 mouse at 2 mg/kg, iv by LC-MS/MS analysis. The class given is ADME, organism-based. The conditions noted are these: in vivo.
A short description of series [16]: Half life in C57BL/6 mouse at 2 mg/kg, iv by LC-MS/MS analysis. The class given is ADME, organism-based. The conditions noted are these: in vivo.
The nature of series [17]: AUC (total) in C57BL/6 mouse at 10 mg/kg, po by LC-MS/MS analysis. In kind it is ADME, organism-based. Set-up: dose 10 mg/kg, route po. The conditions noted are these: in vivo.
A short description of series [18]: Cmax in C57BL/6 mouse at 10 mg/kg, po by LC-MS/MS analysis. In kind it is ADME, organism-based. Further details: dose 10 mg/kg, route po. The conditions noted are these: in vivo.
A short description of series [19]: Oral bioavailability in C57BL/6 mouse at 10 mg/kg by LC-MS/MS analysis. The class given is ADME, organism-based. Conditions: in vivo.
Series [20] is described as follows: Permeability of the compound at 100 uM incubated for 4 hrs at pH 7.4 by PAMPA assay. In kind it is ADME. Conditions: read-out: permeability.
A short description of series [21]: Permeability of the compound at 100 uM incubated for 4 hrs at pH 5.5 by PAMPA assay. In kind it is ADME. Conditions: read-out: permeability.

pIC50: −log10 of the molar value.

Glycogen synthase kinase-3 beta, sequence (P49841 whole entry, looked up, stated change not applied, the tested form may be a part): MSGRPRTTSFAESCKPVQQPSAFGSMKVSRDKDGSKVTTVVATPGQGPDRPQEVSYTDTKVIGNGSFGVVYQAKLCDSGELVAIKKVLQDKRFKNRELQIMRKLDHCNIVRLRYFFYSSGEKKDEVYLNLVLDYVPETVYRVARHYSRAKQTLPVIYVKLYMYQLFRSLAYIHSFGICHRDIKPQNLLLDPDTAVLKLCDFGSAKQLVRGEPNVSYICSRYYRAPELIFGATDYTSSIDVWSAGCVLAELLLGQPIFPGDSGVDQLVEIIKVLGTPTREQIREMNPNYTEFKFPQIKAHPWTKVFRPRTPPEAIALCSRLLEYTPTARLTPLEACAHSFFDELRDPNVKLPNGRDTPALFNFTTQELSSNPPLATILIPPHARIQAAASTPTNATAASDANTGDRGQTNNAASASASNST
Glycogen synthase kinase-3 alpha, sequence (P49840 whole entry, the tested form may be a part): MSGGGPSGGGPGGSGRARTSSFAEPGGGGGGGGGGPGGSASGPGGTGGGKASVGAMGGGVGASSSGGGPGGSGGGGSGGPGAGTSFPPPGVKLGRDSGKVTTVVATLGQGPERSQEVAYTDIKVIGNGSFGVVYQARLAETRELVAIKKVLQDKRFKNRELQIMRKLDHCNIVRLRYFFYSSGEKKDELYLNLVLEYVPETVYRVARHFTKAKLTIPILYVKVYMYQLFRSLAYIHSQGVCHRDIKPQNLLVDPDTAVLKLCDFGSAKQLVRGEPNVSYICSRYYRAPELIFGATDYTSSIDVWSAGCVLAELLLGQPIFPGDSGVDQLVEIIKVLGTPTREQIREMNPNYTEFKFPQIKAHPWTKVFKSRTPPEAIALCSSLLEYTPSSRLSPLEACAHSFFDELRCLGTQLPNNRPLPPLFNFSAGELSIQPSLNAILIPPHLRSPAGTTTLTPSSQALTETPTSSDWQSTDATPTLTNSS

Turning to `Nc1nccc(C(=O)Nc2cccnc2)n1`, the negative-log IC50 (pIC50) in [1] and in series [2] was less than 5.70 each time. Further, the Ratio IC50 in series [3] is less than 2.

With `O=C(Nc1cnccc1-c1ccc(F)cc1)c1ccnc(Nc2ccc(Cl)cc2)n1`, the results for the negative-log IC50 (pIC50) in series [1] and in [2] were 8.96 and 9.06, respectively. In series [4], the half-inhibitory concentration (IC50) came out at 77 nM. The results for the remaining at 10 min, 0.5 µM in [5], in series [6] and in [7] were 80%, 43% and 79%, respectively. Further, the Papp A→B at 2 h, 3 µM in series [8] was found to be 6.4 ×10⁻⁶ cm/s. Moreover, in [9], the Papp B→A at 2 h, 3 µM was 2.3 ×10⁻⁶ cm/s. For the same compound, the results for the unbound share (fraction unbound) at 5 h, 10 µM in series [10], in series [11] and in series [12] were 0.002, 0.003 and 0.004, respectively. This compound showed a clearance in series [13] of 15.8 mL/min/kg. In [14], the Vd was determined as 3.3 L/kg. The compound also registered a mean residence time MRT in [15] of 3.4 h. The half-life in [16] was 174 min. Also, in series [17], the AUC is 5.8 µM·h. Besides, the peak level in [18] (Cmax) was 1400 nM. The same compound displayed a bioavailability in series [19] of 23%. Further, the Papp at 4 h, 100 µM in [20] was determined as 63.9 ×10⁻⁶ cm/s.

As for `O=C(Nc1cnccc1-c1ccc(F)cc1)c1ccnc(Nc2ccc(OC(F)F)cc2)n1`, the pIC50 was 9.35 in series [1] and 9.59 in series [2]. For the same compound, in series [4], the IC50 is 74 nM. Moreover, the remaining at 10 min, 0.5 µM in series [5] turned out to be 82%; in series [6], 62%; in series [7], 72%. Also, the Papp at 4 h, 100 µM worked out at 98 ×10⁻⁶ cm/s in series [21] and 113 ×10⁻⁶ cm/s in [20]. For the same compound, the Papp A→B at 2 h, 3 µM in series [8] was determined as 8.2 ×10⁻⁶ cm/s. In addition, in [9], the Papp B→A at 2 h, 3 µM was 3 ×10⁻⁶ cm/s. In addition, the fraction unbound at 5 h, 10 µM in [10] was 0.003; in [11], 0.004.

For `N#Cc1ccc(Nc2nccc(C(=O)Nc3cncnc3OCC(F)(F)F)n2)cc1`, the pIC50 in series [1] is 9.13; in series [2], 9.82. In addition, the half-inhibitory concentration (IC50) in series [4] was 22 nM. Further, the results for the remaining at 10 min, 0.5 µM in [5], in series [6] and in series [7] were 87%, 61% and 42%, respectively.

As a reminder, the pIC50 is −log10 of the IC50, conventionally taken in molar units. By IC50 is commonly meant the point on the concentration scale where inhibition reaches its midpoint. As usually defined, the fraction unbound is free concentration divided by total concentration. By clearance is commonly meant the rate of elimination divided by the concentration. Low readings indicate a low capacity for elimination, high ones a high capacity for elimination. The MRT is the average time that molecules of a dose stay in the body. The term half-life denotes how long it takes for the measured level to halve. The AUC is concentration integrated over time. Usually Cmax stands for the highest concentration seen after dosing. In general, bioavailability refers to the share of a dose that reaches the circulation, judged against a reference dose that is usually intravenous. Read a low bioavailability as little systemic uptake.

The values are drawn from ChEMBL document CHEMBL5338804 (J Med Chem, 2023).
